According to patent publication US20140024527A1, “HERBICIDAL PYRAZINONES” (E I DU DE NEMOURS AND COMPANY, priority 2011, published 2014):

Tests used:
Test in all cases: Test B postemergence
Format in all cases: in vivo
Conditions in all cases: scale 0 to 100
[1] = tested on: pigweed (Amaranthus retroflexus)
Text: (§1) Seeds of plant species selected from blackgrass (Alopecurus myosuroides), downy bromegrass (Bromus tectorum), green foxtail (Setaria viridis), Italian ryegrass (Lolium multiflorum), wheat (Triticum aestivum), wild oat (Avena fatua), galium (Galium aparine), bermudagrass (Cynodon dactylon), Surinam grass (Brachiaria decumbens), cocklebur (Xanthium strumarium), corn (Zea mays), large crabgrass (Digitaria sanguinalis), woolly cupgrass (Eriochloa villosa), giant foxtail (Setaria faberii), goosegrass (Eleusine indica), johnsongrass (Sorghum halepense), kochia (Kochia scoparia), lambsquarters (Chenopodium album), morningglory (Ipomoea coccinea), yellow nutsedge (Cyperus esculentus), pigweed (Amaranthus retroflexus), ragweed (Ambrosia elatior), soybean (Glycine max), velvetleaf (Abutilon theophrasti), barley (Hordeum vulgare), canarygrass (Phalaris minor), chickweed (Stellaria media), deadnettle (Lamium amplexicaule) and windgrass (Apera spica-venti) were planted in pots containing Redi-Earth® planting medium (Scotts Company, Marysville, Ohio, USA) comprising spaghnum peat moss, vermiculite, wetting agent and starter nutrients and treated postemergence with test compounds formulated in a non-phytotoxic solvent mixture which included a surfactant. Plants ranged in height from 2 to 18 cm (1- to 4-leaf stage).
(§2) Treated plants and controls were maintained in a greenhouse for 13 to 15 days, after which time all species were compared to controls and visually evaluated. Plant response ratings, summarized in Table B, are based on a scale of 0 to 100 where 0 is no effect and 100 is complete control. A dash (-) response means no test result.

[2] = tested on: Surinam grass (Brachiaria decumbens)
Text: as §1, §2

[3] = tested on: wheat (Triticum aestivum)
Text: as §1, §2

[4] = tested on: canarygrass (Phalaris minor)
Text: as §1, §2

[5] = tested on: downy bromegrass (Bromus tectorum)
Text: as §1, §2

[6] = tested on: deadnettle (Lamium amplexicaule)
Text: as §1, §2

[7] = tested on: green foxtail (Setaria viridis)
Text: as §1, §2

[8] = tested on: bermudagrass (Cynodon dactylon)
Text: as §1, §2

soybean (Glycine max) = tested on: soybean (Glycine max)
Text: as §1, §2

[9] = tested on: blackgrass (Alopecurus myosuroides)
Text: as §1, §2

barley (Hordeum vulgare) = tested on: barley (Hordeum vulgare)
Text: as §1, §2

[10] = tested on: lambsquarters (Chenopodium album)
Text: as §1, §2

[11] = tested on: woolly cupgrass (Eriochloa villosa)
Text: as §1, §2

[12] = tested on: goosegrass (Eleusine indica)
Text: as §1, §2

[13] = tested on: johnsongrass (Sorghum halepense)
Text: as §1, §2

[14] = tested on: morningglory (Ipomoea coccinea)
Text: as §1, §2

[15] = tested on: large crabgrass (Digitaria sanguinalis)
Text: as §1, §2

[16] = tested on: velvetleaf (Abutilon theophrasti)
Text: as §1, §2

kochia (Kochia scoparia) = tested on: kochia (Kochia scoparia)
Text: as §1, §2

wild oat (Avena fatua) = tested on: wild oat (Avena fatua)
Text: as §1, §2

[17] = tested on: chickweed (Stellaria media)
Text: as §1, §2

corn (Zea mays) = tested on: corn (Zea mays)
Text: as §1, §2

[18] = tested on: yellow nutsedge (Cyperus esculentus)
Text: as §1, §2

COCCn1c(-c2cccc(F)c2)c(Cl)nc(C(=O)C2=C(O)CCCC2=O)c1=O [Compound 4, 5-chloro-6-(3-fluorophenyl)-3-[(2-hydroxy-6-oxo-1-cyclohexen-1-yl)carbonyl]-1-(2-methoxyethyl)-2(1H)pyrazinone]
70: Plant response rating, Surinam Grass ([2]; 250 g ai/ha) | Plant response rating, Foxtail, Green ([7]; 250 g ai/ha) | Plant response rating, Cupgrass, Woolly ([11]; 62 g ai/ha) | Plant response rating, Crabgrass, Large ([15]; 31 g ai/ha)
30: Plant response rating, Wheat ([3]; 125 g ai/ha) | Plant response rating, Barley (barley (Hordeum vulgare); 250 g ai/ha) | Plant response rating, Oat, Wild (wild oat (Avena fatua); 62 g ai/ha) | Plant response rating, Oat, Wild (wild oat (Avena fatua); 125 g ai/ha)
10: Plant response rating, Bromegrass, Downy ([5]; 62 g ai/ha) | Plant response rating, Blackgrass ([9]; 250 g ai/ha) | Plant response rating, Kochia (kochia (Kochia scoparia); 31 g ai/ha) | Plant response rating, Chickweed ([17]; 62 g ai/ha)
45: Plant response rating, Goosegrass ([12]; 62 g ai/ha) | Plant response rating, Kochia (kochia (Kochia scoparia); 62 g ai/ha) | Plant response rating, Chickweed ([17]; 250 g ai/ha) | Plant response rating, Nutsedge, Yellow ([18]; 125 g ai/ha)
98: Plant response rating, Pigweed ([1]; 250 g ai/ha) | Plant response rating, Lambsquarters ([10]; 62 g ai/ha) | Plant response rating, Lambsquarters ([10]; 125 g ai/ha)
5: Plant response rating, Wheat ([3]; 31 g ai/ha) | Plant response rating, Bermudagrass ([8]; 31 g ai/ha) | Plant response rating, Blackgrass ([9]; 31 g ai/ha) | Plant response rating, Blackgrass ([9]; 62 g ai/ha) | Plant response rating, Blackgrass ([9]; 125 g ai/ha) | Plant response rating, Goosegrass ([12]; 31 g ai/ha) | Plant response rating, Oat, Wild (wild oat (Avena fatua); 31 g ai/ha) | Plant response rating, Chickweed ([17]; 31 g ai/ha) | Plant response rating, Nutsedge, Yellow ([18]; 31 g ai/ha)
100: Plant response rating, Lambsquarters ([10]; 250 g ai/ha)
40: Plant response rating, Canarygrass ([4]; 62 g ai/ha) | Plant response rating, Bermudagrass ([8]; 250 g ai/ha) | Plant response rating, Oat, Wild (wild oat (Avena fatua); 250 g ai/ha)
15: Plant response rating, Bromegrass, Downy ([5]; 125 g ai/ha) | Plant response rating, Bromegrass, Downy ([5]; 250 g ai/ha) | Plant response rating, Deadnettle ([6]; 31 g ai/ha) | Plant response rating, Deadnettle ([6]; 62 g ai/ha) | Plant response rating, Chickweed ([17]; 125 g ai/ha)
50: Plant response rating, Canarygrass ([4]; 125 g ai/ha) | Plant response rating, Cupgrass, Woolly ([11]; 31 g ai/ha) | Plant response rating, Goosegrass ([12]; 125 g ai/ha) | Plant response rating, Velvetleaf ([16]; 31 g ai/ha) | Plant response rating, Velvetleaf ([16]; 62 g ai/ha)
75: Plant response rating, Soybean (soybean (Glycine max); 125 g ai/ha) | Plant response rating, Soybean (soybean (Glycine max); 250 g ai/ha) | Plant response rating, Cupgrass, Woolly ([11]; 125 g ai/ha) | Plant response rating, Johnsongrass ([13]; 125 g ai/ha) | Plant response rating, Crabgrass, Large ([15]; 62 g ai/ha) | Plant response rating, Velvetleaf ([16]; 250 g ai/ha)
35: Plant response rating, Wheat ([3]; 250 g ai/ha) | Plant response rating, Foxtail, Green ([7]; 31 g ai/ha) | Plant response rating, Foxtail, Green ([7]; 62 g ai/ha) | Plant response rating, Foxtail, Green ([7]; 125 g ai/ha) | Plant response rating, Bermudagrass ([8]; 125 g ai/ha) | Plant response rating, Corn (corn (Zea mays); 125 g ai/ha)
60: Plant response rating, Surinam Grass ([2]; 62 g ai/ha) | Plant response rating, Canarygrass ([4]; 250 g ai/ha) | Plant response rating, Soybean (soybean (Glycine max); 62 g ai/ha) | Plant response rating, Johnsongrass ([13]; 31 g ai/ha) | Plant response rating, Johnsongrass ([13]; 62 g ai/ha) | Plant response rating, Velvetleaf ([16]; 125 g ai/ha)
0: Plant response rating, Bromegrass, Downy ([5]; 31 g ai/ha) | Plant response rating, Barley (barley (Hordeum vulgare); 31 g ai/ha) | Plant response rating, Corn (corn (Zea mays); 31 g ai/ha)
95: Plant response rating, Lambsquarters ([10]; 31 g ai/ha) | Plant response rating, Morningglory ([14]; 62 g ai/ha) | Plant response rating, Morningglory ([14]; 125 g ai/ha) | Plant response rating, Morningglory ([14]; 250 g ai/ha)
85: Plant response rating, Cupgrass, Woolly ([11]; 250 g ai/ha) | Plant response rating, Johnsongrass ([13]; 250 g ai/ha) | Plant response rating, Crabgrass, Large ([15]; 250 g ai/ha)
65: Plant response rating, Pigweed ([1]; 31 g ai/ha) | Plant response rating, Surinam Grass ([2]; 125 g ai/ha) | Plant response rating, Goosegrass ([12]; 250 g ai/ha) | Plant response rating, Nutsedge, Yellow ([18]; 250 g ai/ha)
80: Plant response rating, Pigweed ([1]; 62 g ai/ha) | Plant response rating, Crabgrass, Large ([15]; 125 g ai/ha)
25: Plant response rating, Canarygrass ([4]; 31 g ai/ha)
55: Plant response rating, Surinam Grass ([2]; 31 g ai/ha) | Plant response rating, Soybean (soybean (Glycine max); 31 g ai/ha) | Plant response rating, Kochia (kochia (Kochia scoparia); 125 g ai/ha) | Plant response rating, Corn (corn (Zea mays); 250 g ai/ha)
90: Plant response rating, Pigweed ([1]; 125 g ai/ha) | Plant response rating, Morningglory ([14]; 31 g ai/ha) | Plant response rating, Kochia (kochia (Kochia scoparia); 250 g ai/ha)
20: Plant response rating, Wheat ([3]; 62 g ai/ha) | Plant response rating, Bermudagrass ([8]; 62 g ai/ha) | Plant response rating, Barley (barley (Hordeum vulgare); 62 g ai/ha) | Plant response rating, Barley (barley (Hordeum vulgare); 125 g ai/ha) | Plant response rating, Corn (corn (Zea mays); 62 g ai/ha) | Plant response rating, Nutsedge, Yellow ([18]; 62 g ai/ha)
